US20250099488A1, “ANTI-PARASITE COMPOUNDS” (AUSTRALIAN NATIONAL UNIVERSITY, priority 2022, published 2025)
Read-outs that look alike come from different tables or passages of the source.

Assays:
[1] = test system: P. falciparum infected red blood cells (iRBC) vs uninfected red blood cells (uRBC); experiment: Uptake of fluorescent cholesterol analogues into infected vs uninfected RBCs (flow cytometry, microscopy); assay type: cell-based, Plasmodium falciparum; settings: 24 hrs incubation, ring-stage culture, cholesterol-depleted media
Procedure: (§1) For quantification, events were measured on a LSR II or LSRFortessa Flow Cytometer. NBD/BODIPY fluorescence was detected at 488 nm ex/530 nm em. Hoechst 33342 (Thermo Fisher) fluorescence was detected at 410 nm ex/450 nm em. Resorufin fluorescence was detected at 561 nm ex/610 nm em. Mitotracker Deep Red was detected at 633 nm ex/670 nm em. Dehydroergosterol was detected at 355 nm ex/450 nm em.
(§2) Data were initially processed using FlowJo. RBCs were gated on FSC and SCC. iRBCs (positive) and uRBCs (negative) were differentiated by Hoechst or Mitotracker fluorescence. The geometric mean of fluorescence intensity (mean fluorescence intensity, MFI) and/or the percentage of each population (e.g. Hoechst positive) was calculated with FlowJo. Background fluorescence was subtracted based on unstained controls (buffer or solvent only). Except where otherwise specified, MFI data was normalised between experiments by setting the fluorescence of untreated uRBCs to 1.
Ring-stage parasites at 4% parasitaemia and 2% haematocrit were incubated with 2.02 uM cholesterol analogues or solvent controls in cholesterol-depleted media for 24 hours at 37° C. under microaerophilic conditions. […] Samples were read on a flow cytometer or imaged with fluorescence microscopy as described above. […]

[2] = test system: P. falciparum gametocytes (stage III-IV); experiment: Gametocyte viability assay (MitoTracker, flow cytometry); assay type: cell-based, Plasmodium falciparum; settings: FIG. 9C
Description: Gametocyte assays begun eight days post-invasion (Stage III-IV).
(§3) Growth inhibition data were normalised by subtracting background fluorescence, luminescence, absorbance, or percentage of cells from a no-growth or no-viability control (high drug concentration, no-parasite control, or time=0 measurement as specified), and expressed as a percentage of the growth or cell percentage in the negative control (culture media alone or solvent control) at the indicated timepoint (or to the highest measurement reached during the assay for FIG. 15B).

[3] = test system: human foreskin fibroblasts (HFF); experiment: HFF growth inhibition assay (SYBR Safe); assay type: cell-based; settings: 72 hrs
Procedure: Cells were incubated with a serial dilution of each compound, or media/DMSO alone. The protein synthesis inhibitor cycloheximide (10 μg/mL) was used as a positive control to determine background fluorescence. Approximately 5000 cells were seeded in each well. […] Plates were transferred to a −18° C. freezer. […] Fluorescence was read at 490 nm excitation/520 nm emission on a FLUOstar Optima fluorescence plate reader.
HFF cell growth inhibition assays began with 5000 cells per well. 10 μg/mL cycloheximide was used as a no-growth control.

Leishmania tarentolae = Leishmania tarentolae growth inhibition; assay type: cell-based; settings: 72 hours, FIG. 22
[4] = test system: P. falciparum infected red blood cells (iRBC) vs uninfected red blood cells (uRBC); experiment: Uptake and cleavage of steroid-resorufin conjugate in iRBCs vs uRBCs; assay type: cell-based, Plasmodium falciparum; settings: steroid-resorufin conjugate (PAYb193), FIG. 10A
Procedure: Images were collected and deconvoluted on a Deltavision Deconvolution microscope at 1000× magnification, with a resolution of 0.067 μm per pixel. NBD and BODIPY fluorescence were detected at 475/28 nm excitation and 525/48 nm emission. Hoechst fluorescence (nucleic acid) was detected at 390/18 nm and ex/435/48 nm em. Resorufin fluorescence was detected at 575/25 nm ex and 626/45 nm em.
as §1, §2

asexual P. falciparum = experiment: Plasmodium growth inhibition assay (SYBR Safe), asexual stages; assay type: cell-based, Plasmodium falciparum; settings: 72 hrs, FIG. 10B
Procedure: Compounds or solvent controls (DMSO, ethanol, or ethyl acetate) were serially diluted 2-fold across flat-bottom 96-well plates. Complete culture media without compound was used as a negative control. Chloroquine (100-200 nM) {Sigma C6628} was used as a positive control to determine background fluorescence. The parasitaemia of a culture containing predominantly ring stage parasites was counted by Giemsa smear. The parasitaemia was adjusted to 1% by addition of fresh uRBCs, and added to the plate at a final haematocrit of 1%, with 200 μL per well. The plates were incubated at 37° C. under humid microaerophilic conditions. […] Fluorescence was read at 490 nm excitation/520 nm emission on a FLUOstar Optima fluorescence plate reader {BMG Labtech}.
Growth inhibition data were normalised by subtracting background fluorescence from a no-growth control (high drug concentration or time=0 measurement as specified), and expressed as a percentage of the growth in the negative control (media alone or solvent control) either at the indicated timepoint, or to the highest measurement reached during the assay.
P. falciparum asexual parasite assays begun with ring-stage parasites at 1% parasitaemia and 1% haematocrit. 200 nM chloroquine (Sigma C6628) was used as a no-growth control. […] 17]; 8 (2):e54974).
as §3

[5] = HEK293 cell viability assay (MTT); assay type: cell-based, human; settings: human, 72 hours, FIG. 21E, conjugate = BC75D, read-out: IC50, HEK293 cytotoxicity
Procedure: HEK293 cell viability assays began with 5000 cells per well. 10 μg/mL cycloheximide was used as a no-growth control. Metabolic capacity (indicating viability) was measured by incubation with 0.45 mg/mL methylthiazolyldiphenyl-tetrazolium bromide (MTT; Sigma M2128) for two hours followed by crystal solubilisation in SDS.

[6] = test system: chloroquine resistant P. falciparum strain C4_Dd2; experiment: Growth inhibition of chloroquine resistant P. falciparum strain; assay type: cell-based, Plasmodium falciparum; settings: 72 hours, FIG. 21D; conjugate = BC75D
Procedure: (§4) Growth inhibition was investigated according to methods described by Smilkstein et al. (2004) with modifications by Spry et al. (2013). Compounds or solvent controls (DMSO, ethanol, or ethyl acetate) were serially diluted 2-fold across flat-bottom 96-well plates. Complete culture media without compound was used as a negative control. Chloroquine (100-200 nM) {Sigma C6628} was used as a positive control to determine background fluorescence. The parasitaemia of a culture containing predominantly ring stage parasites was counted by Giemsa smear. The parasitaemia was adjusted to 1% by addition of fresh uRBCs, and added to the plate at a final haematocrit of 1%, with 200 μL per well. The plates were incubated at 37° C. under humid microaerophilic conditions. After 72 hours (or the indicated timepoint), the plates were transferred to a −18° C. freezer to stop the assay and lyse cells. Plates were thawed and lysate was mixed 1:1 with SYBR Safe DNA Gel Stain {Invitrogen 33102}(final concentration 1/10000) diluted in lysis buffer (20 mM TRIS, 5 mM EDTA, 0.008% w/v Saponin, 0.08% w/v Triton-X 100, pH 7.5). Fluorescence was read at 490 nm excitation/520 nm emission on a FLUOstar Optima fluorescence plate reader {BMG Labtech}. […]

[7] = test system: chloroquine sensitive P. falciparum strains 3D7 and C2_GC03; experiment: Growth inhibition of chloroquine sensitive P. falciparum strains; assay type: cell-based, Plasmodium falciparum; settings: FIG. 21B/21C
Procedure: as §4

CC(C)CCC[C@@H](C)[C@H]1CC[C@H]2[C@@H]3CC=C4C[C@@H](OC(=O)CCCCCNc5ccc([N+](=O)[O-])c6nonc56)CC[C@]4(C)[C@H]3CC[C@]12C [3-hexanoyl-NBD-cholesterol]
Uptake in iRBC compared to uRBC (fold change of fluorescence) [1]: not significantly different

COc1cc(NC(C)CCCNC(=O)CCC(=O)O[C@H]2CC[C@H]3[C@@H]4CC=C5C[C@@H](O)CC[C@]5(C)[C@H]4CC[C@]23C)c2ncccc2c1 (stereo partly shown) [BC5B]
Susceptibility of early (I-III) and late stage (III-IV) gametocytes [2]: both early (A) and late-stage (B) gametocytes are equally susceptible | Maximal inhibition of HFF growth at the range of concentrations tested [3]: ≤ 50% | IC50 (Leishmania tarentolae): higher efficacy than primaquine

CC1=CC(C)=[N+]2C1=C(CC[C@@H](C)[C@H]1CC[C@H]3[C@@H]4CC=C5C[C@@H](O)CC[C@]5(C)[C@H]4CC[C@]13C)c1c(C)cc(C)n1[B-]2(F)F [24-BODIPY-cholesterol]
Uptake in iRBC compared to uRBC (fold change of fluorescence) [1]: seems to get stuck at the RBC membrane

CC(C)(C)OOCCO[C@H]1CC[C@H]2[C@@H]3CC=C4C[C@@H](O)CC[C@]4(C)[C@H]3CC[C@]12C [BC86D]
IC50 (Leishmania tarentolae; Leishmania tarentolae, read-out: IC50): < 1 µM

CC12CCC(O)CC1=CCC1C2CCC2(C)C(OC(=O)CCC(=O)OCOc3ccc4nc5ccc(=O)cc-5oc4c3)CCC12 (stereo not drawn) [Payb193, 3β-hydroxyandrost-5-en-17β-yl succinate-(hydroxymethoxy)-resorufin ester]
Uptake of the probe, iRBCs vs uRBCs [4]: approximately 2 fold | Killing of the parasite compared with uncoupled resorufin (dose-response curve) (asexual P. falciparum): can kill the parasite at lower concentrations than the uncoupled resorufin base molecule

C[C@]12CC[C@H]3[C@@H](CC=C4C[C@@H](O)CC[C@@]43C)[C@@H]1CC[C@@H]2OC(=O)CCC(=O)OCOc1ccc2nc3ccc(=O)cc-3oc2c1 [steroid-resorufin conjugate, 3β-Hydroxyandrost-5-en-17β-yl succinate-(hydroxymethoxy)-resorufin ester]
Uptake of the probe, iRBCs vs uRBCs [4]: approximately 2 fold

CCN(CCCC(C)Nc1ccnc2cc(Cl)ccc12)CCOC(=O)CCC(=O)O[C@H]1CC[C@H]2[C@@H]3CC=C4C[C@@H](O)CC[C@]4(C)[C@H]3CC[C@]12C (stereo partly shown) [hydroxychloroquine-steroid conjugate]
IC50 at 72 h [5]: 13 µM | Times more effective at killing resistant parasites than hydroxychloroquine [6]: 2.6 fold

CCN(CCO)CCCC(C)Nc1ccnc2cc(Cl)ccc12 (stereo not shown) [hydroxychloroquine, reference compound]
IC50 at 72 h ([5]; HEK293 cells): 38.4 µM | Fold better efficacy than hydroxychloroquine-steroid conjugates [7]: 1.4-1.6 fold
